Data on 23 molecules can be found in US10253015B2, “Pyridinyl quinolinone derivatives as mutant-isocitrate dehydrogenase inhibitors” (FORMA TM2, Inc., priority 2014, dated 2019).

For assay [1], the target named is IDH1-R132H recombinant protein (Homo sapiens (Human), UniProt O75874, R132H). Description: IDH1-R132H enzymatic assay. The class given is biochemical. The following applies: inhibition of NADPH consumption, diaphorase/resazurin readout; read-out: Enzyme IDH1 R132H Range IC50. Here is the method:
(§1) Assays were performed in a 384-well black plate. […] After the plate was centrifuged briefly, an aliquot of 10 μL of 2 mM α-ketoglutarate and 20 μM NADPH solution prepared in assay buffer was then added to each well and the reaction was maintained at 25° C. for 45 minutes. An aliquot of 10 μL of diaphorase solution (0.15 U/mL diaphorase and 30 μM Resazurin in assay buffer) was added to each well. […] The IC50 of a given compound was calculated by fitting the dose response curve of inhibition of NADPH consumption at a given concentration with the four parameter logistic equation.

For assay [2], the target named is IDH1-R132C recombinant protein (Homo sapiens (Human), UniProt O75874, R132C). Description: IDH1-R132C enzymatic assay. The following applies: inhibition of NADPH consumption, diaphorase/resazurin readout; read-out: Enzyme IDH1 R132C Range IC50. It is filed as biochemical. As to the method: as §1
Sequence of IDH1-R132C recombinant protein (O75874 whole entry R132C): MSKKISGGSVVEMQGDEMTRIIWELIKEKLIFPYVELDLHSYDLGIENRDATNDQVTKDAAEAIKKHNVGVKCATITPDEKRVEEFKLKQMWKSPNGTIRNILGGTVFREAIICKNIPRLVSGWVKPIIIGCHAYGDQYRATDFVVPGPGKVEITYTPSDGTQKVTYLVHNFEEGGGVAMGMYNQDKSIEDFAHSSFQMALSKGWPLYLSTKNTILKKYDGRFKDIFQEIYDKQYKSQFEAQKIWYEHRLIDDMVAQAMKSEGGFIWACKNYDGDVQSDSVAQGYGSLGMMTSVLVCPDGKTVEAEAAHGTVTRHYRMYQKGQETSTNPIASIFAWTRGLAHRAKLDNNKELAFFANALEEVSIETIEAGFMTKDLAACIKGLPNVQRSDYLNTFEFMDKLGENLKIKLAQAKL
The test system of assay [3] is HCT116 isogenic IDH1-R132H mutant cells. Description: Cellular 2-HG assay using HCT116 mutant IDH1 cells (R132H). It is filed as cell-based. Particulars: Homo sapiens, HCT-116; cellular 2-HG inhibition, 24 hours, RapidFire mass spectrometry; read-out: HCT IDH1 R132H Range IC50. As to the method:
(§2) HCT116 isogenic IDH1-R132H and IDH1-R132C mutant cells were cultured in growth media (McCoy's 5 A, 10% fetal bovine serum, 1× antibiotic-antimycotic solution and 0.3 mg/mL G418) in 5% CO2 in an incubator at 37° C. To prepare the assay, cells were trypsinized and resuspended in assay media (McCoy's 5 A with no L-glutamine, 10% fetal bovine serum, 1× antibiotic-antimycotic solution and 0.3 mg/mL G418). An aliquot of 10,000 cells/100 μL was transferred to each well of a clear 96-well tissue culture plate. The cells were incubated in 5% CO2 at 37° C. in an incubator overnight to allow for proper cell attachment. An aliquot of 50 μL of compound containing assay media were then added to each well and the assay plate was kept in 5% CO2 at 37° C. in an incubator for 24 hours. The media was then removed from each well and 150 μL of a methanol/water mixture (80/20 v/v) was added to each well. The plates were kept at −80° C. freezer overnight to allow for complete cell lysis. An aliquot of 125 μL of extracted supernatant was analyzed by RapidFire high-throughout-mass spectrometry (Agilent) to determine the cellular 2-HG level. The IC50 of a given compound was calculated by fitting the dose response curve of cellular 2-HG inhibition at a given concentration with the four parameter logistic equation

Assay [4] relates to HCT116 isogenic IDH1-R132C mutant cells. Description: Cellular 2-HG assay using HCT116 mutant IDH1 cells (R132C). It is filed as cell-based. Particulars: Homo sapiens, HCT-116; cellular 2-HG inhibition, 24 hours, RapidFire mass spectrometry; read-out: HCT IDH1 R132C Range IC50. Here is the method: as §2

By IC50 is commonly meant the concentration that inhibits the measured activity by half.

Sequence of IDH1-R132H recombinant protein (O75874 whole entry R132H): as the sequence (O75874 whole entry R132C) above, with C132H counted along it

Regarding `COc1nc(C#N)ccc1N[C@@H](C)c1cc2cc(Cl)ccc2[nH]c1=O` [Compound I-7, 5-{[(1S)-1-(6-chloro-2-oxo-1,2-dihydroquinolin-3-yl)ethyl]amino}-6-methoxypyridine-2-carbonitrile], the IC50 in assay [1] is below 100 nM; in assay [2] it was 1000 to 10000 nM; in assay [3], 100 to 1000 nM; in assay [4] it was 100 to 1000 nM.

In the case of `Cc1c(-c2ccnc(N[C@@H](C)c3cc4cc(Cl)ccc4[nH]c3=O)c2)cnn1C` [Compound I-40, 6-chloro-3-[(1S)-1-{[4-(1,5-dimethyl-1H-pyrazol-4-yl)pyridin-2-yl]amino}ethyl]-1,2-dihydroquinolin-2-one], the IC50 in assay [1], in assay [2], in assay [3] and in assay [4] was 100 to 1000 nM each time.

On to `C[C@H](Nc1nccc(N2CCOC2=O)c1F)c1cc2cc(Cl)ccc2[nH]c1=O` [Compound I-14, 6-chloro-3-[(1S)-1-{[3-fluoro-4-(2-oxo-1,3-oxazolidin-3-yl)pyridin-2-yl]amino}ethyl]-1,2-dihydroquinolin-2-one], for which the IC50 in assay [1] is below 100 nM; in assay [2], 100 to 1000 nM; in assay [3] it was 100 to 1000 nM; in assay [4], 100 to 1000 nM.

Consider `COc1nc(N[C@@H](C)c2cc3cc(Cl)ccc3[nH]c2=O)ccc1C#N` [Compound I-6, 6-{[(1S)-1-(6-chloro-2-oxo-1,2-dihydroquinolin-3-yl)ethyl]amino}-2-methoxypyridine-3-carbonitrile], for which the IC50 in assay [1] is below 100 nM; in assay [2] it was 100 to 1000 nM; in assay [3], 100 to 1000 nM; in assay [4] it was 10 to 100 nM.

For `Cc1nc(N[C@@H](C)c2cc3cc(Cl)ccc3[nH]c2=O)ccc1C#N` [Compound I-4, (S)-6-(1-(6-chloro-2-oxo-1,2-dihydroquinolin-3-yl)ethylamino)-2-methyl nicotinonitrile], the concentration for half-maximal inhibition (IC50) is below 100 nM in assay [1], 100 to 1000 nM in assay [2], 100 to 1000 nM in assay [3] and 100 to 1000 nM in assay [4].

With `Cc1nc(N[C@@H](C)c2cc3cc(Cl)c(OCc4ccccn4)cc3[nH]c2=O)ccc1C#N` [Compound I-28, 6-{[(1S)-1-[6-chloro-2-oxo-7-(pyridin-2-ylmethoxy)-1,2-dihydroquinolin-3-yl]ethyl]amino}-2-methylpyridine-3-carbonitrile], the concentration for half-maximal inhibition (IC50) is below 100 nM in assay [1], below 100 nM in assay [2], 10 to 100 nM in assay [3] and below 10 nM in assay [4].

For the molecule `COc1cc2[nH]c(=O)c(C(C)Nc3ccc(C#N)c(C)n3)cc2cc1Cl` (stereo not drawn) [Compound I-24, 6-{[1-(6-chloro-7-methoxy-2-oxo-1,2-dihydroquinolin-3-yl)ethyl]amino}-2-methylpyridine-3-carbonitrile], the IC50 in assay [4] is 100 to 1000 nM.

As for `Cc1nc(N[C@@H](C)c2cc3cc(Cl)c(F)cc3[nH]c2=O)ccc1C#N` [Compound I-22, 6-{[(1S)-1-(6-chloro-7-fluoro-2-oxo-1,2-dihydroquinolin-3-yl)ethyl]amino}-2-methylpyridine-3-carbonitrile], the IC50 is below 100 nM in assay [1], 100 to 1000 nM in assay [2], below 10 nM in assay [3] and 100 to 1000 nM in assay [4].

Regarding `COc1cc2[nH]c(=O)c([C@H](C)Nc3ccc(C#N)c(C)n3)cc2cc1Cl` [Compound I-23, 6-{[(1S)-1-(6-chloro-7-methoxy-2-oxo-1,2-dihydroquinolin-3-yl)ethyl]amino}-2-methylpyridine-3-carbonitrile], the IC50 in assay [4] is 10 to 100 nM.

As to `C[C@H](Nc1cccc(N2CCOC2=O)n1)c1cc2cc(Cl)ccc2[nH]c1=O` [Compound I-11, 6-chloro-3-[(1S)-1-{[6-(2-oxo-1,3-oxazolidin-3-yl)pyridin-2-yl]amino}ethyl]-1,2-dihydroquinolin-2-one], the IC50 in assay [4] lay within 100 to 1000 nM.

Turning to `Cc1nc(NC(C)c2cc3cc(Cl)c(OCc4ccccn4)cc3[nH]c2=O)ccc1C#N` (stereo not drawn) [Compound I-29, 6-({1-[6-chloro-2-oxo-7-(pyridin-2-ylmethoxy)-1,2-dihydroquinolin-3-yl]ethyl}amino)-2-methylpyridine-3-carbonitrile], the IC50 in assay [1] is below 100 nM; in assay [3], 10 to 100 nM; in assay [4] it was 10 to 100 nM.

Consider `Cc1cc(NCc2cc3cc(Cl)ccc3[nH]c2=O)ncc1C#N` [Compound I-59, 6-{[(6-chloro-2-oxo-1,2-dihydroquinolin-3-yl)methyl]amino}-4-methylpyridine-3-carbonitrile], for which the figures for the IC50 in assay [1] and in assay [2] were 100 to 1000 nM and 1000 to 10000 nM, respectively.

Consider `C[C@H](Nc1cc(N2CCOC2=O)ccn1)c1cc2cc(Cl)ccc2[nH]c1=O` [Compound I-10, 6-chloro-3-[(1S)-1-{[4-(2-oxo-1,3-oxazolidin-3-yl)pyridin-2-yl]amino}ethyl]-1,2-dihydroquinolin-2-one], for which the IC50 in assay [1] was below 100 nM; in assay [2], 1000 to 10000 nM.

For `COc1cc(N[C@@H](C)c2cc3cc(Cl)ccc3[nH]c2=O)ncc1C#N` [Compound I-1, 6-{[(1S)-1-(6-chloro-2-oxo-1,2-dihydroquinolin-3-yl)ethyl]amino}-4-methoxypyridine-3-carbonitrile], the half-maximal inhibitory concentration (IC50) in assay [4] is 100 to 1000 nM.

As for `CC(C)Cn1nccc1-c1ccnc(N[C@@H](C)c2cc3cc(Cl)ccc3[nH]c2=O)c1` [Compound I-43, 6-chloro-3-[(1S)-1-({4-[1-(2-methylpropyl)-1H-pyrazol-5-yl]pyridin-2-yl}amino)ethyl]-1,2-dihydroquinolin-2-one], the half-inhibitory concentration (IC50) in assay [1] and in assay [2] was 1000 to 10000 nM each time.

As to `C[C@H](Nc1cc(-c2c[nH]nc2C(F)(F)F)ccn1)c1cc2cc(Cl)ccc2[nH]c1=O` [Compound I-50, 6-chloro-3-[(1S)-1-({4-[3-(trifluoromethyl)-1H-pyrazol-4-yl]pyridin-2-yl}amino)ethyl]-1,2-dihydroquinolin-2-one], the results for the IC50 in assay [1] and in assay [2] were 1000 to 10000 nM and above 10000 nM, respectively.

Turning to `C[C@H](Nc1cc(N2C(=O)OCC2(C)C)ccn1)c1cc2cc(Cl)ccc2[nH]c1=O` [Compound I-13, 6-chloro-3-[(1S)-1-{[4-(4,4-dimethyl-2-oxo-1,3-oxazolidin-3-yl)pyridin-2-yl]amino}ethyl]-1,2-dihydroquinolin-2-one], the results for the IC50 in assay [1] and in assay [2] were 100 to 1000 nM and 1000 to 10000 nM, respectively.

Regarding `C[C@H](Nc1cc(-c2ccn[nH]2)ccn1)c1cc2cc(Cl)ccc2[nH]c1=O` [Compound I-41, 6-chloro-3-[(1S)-1-{[4-(1H-pyrazol-5-yl)pyridin-2-yl]amino}ethyl]-1,2-dihydroquinolin-2-one], the 50% inhibitory concentration (IC50) in assay [1] and in assay [2] was 1000 to 10000 nM each time.

For `Cc1cscc1-c1ccnc(N[C@@H](C)c2cc3cc(Cl)ccc3[nH]c2=O)c1` [Compound I-48, 6-chloro-3-[(1S)-1-{[4-(4-methylthiophen-3-yl)pyridin-2-yl]amino}ethyl]-1,2-dihydroquinolin-2-one], the IC50 in assay [1] and in assay [2] was 1000 to 10000 nM throughout.

As to `CC(C)Cn1nccc1-c1ccnc(N[C@@H](C)c2cc3cc(Cl)ccc3[nH]c2=O)c1F` [Compound I-56, 6-chloro-3-[(1S)-1-({3-fluoro-4-[1-(2-methylpropyl)-1H-pyrazol-5-yl]pyridin-2-yl}amino)ethyl]-1,2-dihydroquinolin-2-one], the IC50 in assay [1] and in assay [2] was above 10000 nM in each case.

With `CC(Nc1cc(N2C(=O)OC[C@@H]2C(C)C)ccn1)c1cc2cc(Cl)ccc2[nH]c1=O` (stereo partly drawn) [Compound I-18, 6-chloro-3-[1-({4-[(4S)-2-oxo-4-(propan-2-yl)-1,3-oxazolidin-3-yl]pyridin-2-yl}amino)ethyl]-1,2-dihydroquinolin-2-one], the IC50 in assay [1] lay within 100 to 1000 nM; in assay [2] it was 1000 to 10000 nM.

Take `CC(C)n1nccc1-c1ccnc(N[C@@H](C)c2cc3cc(Cl)ccc3[nH]c2=O)c1` [Compound I-44, 6-chloro-3-[(1S)-1-({4-[1-(propan-2-yl)-1H-pyrazol-5-yl]pyridin-2-yl}amino)ethyl]-1,2-dihydroquinolin-2-one]: the IC50 in assay [1] and in assay [2] was 1000 to 10000 nM in each case.

Consider `CC(=O)Nc1ccnc(N[C@@H](C)c2cc3cc(Cl)ccc3[nH]c2=O)c1F` [Compound I-34, N-(2-{[(1S)-1-(6-chloro-2-oxo-1,2-dihydroquinolin-3-yl)ethyl]amino}-3-fluoropyridin-4-yl)acetamide], for which the half-maximal inhibitory concentration (IC50) in assay [1] is below 100 nM; in assay [2] it was 100 to 1000 nM.
